Values joined by “and” are separate entries in the source; they are usually repeats but may differ in a detail not shown here. Equal values may be shown once.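 Values below derive from 48-hour exposures of cells grown in 96-well plates, with endpoints linearly interpolated between the two concentrations bracketing the appropriate inhibition level. GI50 is the concentration that inhibits growth by half. Definition used: TGI = concentration required for complete inhibition of growth.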
What was measured:
Experiment in all cases: growth of human tumour cells (NCI), 48 h
NCI/ADR-RES ovarian = system: NCI/ADR-RES ovarian
CCRF-CEM leukemia = system: CCRF-CEM leukemia
SK-MEL-28 melanoma = system: SK-MEL-28 melanoma
HOP-62 NSCLC = system: HOP-62 NSCLC
SK-MEL-5 melanoma = system: SK-MEL-5 melanoma
NCI-H23 lung = system: NCI-H23 lung
786-0 renal = system: 786-0 renal
RXF 393 renal = system: RXF 393 renal
DU-145 prostate = system: DU-145 prostate
SF-539 CNS = system: SF-539 CNS

SMILES | GI50 (NCI/ADR-RES ovarian) [µM] | TGI (NCI/ADR-RES ovarian) [µM] | GI50 (CCRF-CEM leukemia) [µM] | TGI (CCRF-CEM leukemia) [µM] | GI50 (SK-MEL-28 melanoma) [µM] | TGI (SK-MEL-28 melanoma) [µM] | GI50 (HOP-62 NSCLC) [µM] | TGI (HOP-62 NSCLC) [µM] | GI50 (SK-MEL-5 melanoma) [µM] | TGI (SK-MEL-5 melanoma) [µM] | GI50 (NCI-H23 lung) [µM] | TGI (NCI-H23 lung) | GI50 (786-0 renal) [µM] | TGI (786-0 renal) [µM] | GI50 (RXF 393 renal) [µM] | TGI (RXF 393 renal) [µM] | GI50 (DU-145 prostate) | TGI (DU-145 prostate) [µM] | GI50 (SF-539 CNS) [µM] | TGI (SF-539 CNS) [µM]
CCN1C(=O)N(CC)C2C1NN=c1s/c(=C3\C(=O)N(CC(C)C)c4ccccc43)c(=O)n12 (stereo unspecified) | 0.479 | > 30.4 | 0.464 | > 100 | 3.28 | > 100 | 0.797 | 34.8 | 0.436 | > 100 | 2.19 | > 100 µM | 1.02 | 26.7 | 0.335 | 2.45 | 0.777 µM | > 30.4 | 0.327 | 1.66
c1ccc2[nH]c(SSc3nc4ncncc4[nH]3)nc2c1 | 1.74 | > 100 | 1.37 | > 100 | 27.8 | > 100 | 0.427 | > 100 | 3.62 | > 100 | 2.9 | > 100 µM | 0.463 | > 100 | 32.1 | > 100 | 0.674 µM | > 100 | 0.989 | > 100
Nc1ccc(C(=O)c2ccc(N)c(Br)c2)cc1Br | 0.348 | > 46.2 | 0.483 | > 100 | 1.09 | > 100 | 0.538 | 22.7 | 0.372 | 17.9 | 1.16 | > 100 µM | 0.775 | 17.8 | 0.279 | 0.882 | 0.334 µM | 1.58 | 0.296 | 3.16
CN(NC(=O)CC(=O)NN(C)C(=S)c1ccccc1)C(=S)c1ccccc1 | 55.3 | > 100 | 64.7 | > 100 | > 72.8 | > 100 | > 69.2 | > 100 | 49.1 | > 100 | > 87.4 | > 100 µM | 56.3 | > 100 | > 61.1 | > 100 | > 59.2 µM | > 100 |  | > 100
Cc1ncc([N+](=O)[O-])n1CCNS(=O)(=O)CCCn1ccnc1[N+](=O)[O-] |  | > 100 |  | > 100 |  | > 100 |  | > 100 |  | > 100 |  | > 100 µM |  | > 100 |  | > 100 |  | > 100 |  | > 100
O=[N+]([O-])c1ccc(-c2nc(N(CCO)CCO)c3ccccc3n2)o1 | 0.956 | 7.57 | 1.14 | 64.1 | 0.877 | 2.41 | 0.145 | 0.671 | 0.112 | 0.244 | 0.1 | 0.314 µM | 0.231 | 0.621 | 0.159 | 0.34 | 0.0352 µM | 0.303 | 0.272 | 1.24
c1cc2c(cc1C(N1CCNCC1)N1CCNCC1)OCO2 |  | > 100 |  |  |  | > 100 |  | > 100 |  | > 100 |  | > 100 µM |  | > 100 |  | > 100 |  | > 100 |  | > 100
C=C1CC[C@@]2(C#N)[C@H]3[C@H](CC[C@@H]2C)[C@@H](C)C[C@@H](CC(C)(C)C#N)[C@H]13 | 2.87 | 24.6 | 1.62 | 33.5 | 2.63 | 44.2 | 2.33 | 24.3 | 1.54 | 12.9 | 1.06 | 32.6 µM | 2.33 | 23.3 | 5.85 | 22.8 | 0.337 µM | 16.2 | 0.609 | 17.5
O=C(/C=C/C=C/c1ccccc1)CCc1ccccc1 |  | > 100 |  | > 100 |  |  |  | > 100 |  | > 100 |  | > 100 µM |  | > 100 |  | > 100 |  | > 100 |  | > 100
Cc1ccccc1CN1CC2=C(CCN(Cc3ccccc3)C2=O)N2CCN=C12 |  | > 100 | 0.7 | > 100 |  | > 100 |  | > 100 |  | > 64.7 |  | > 100 µM |  | > 100 |  | > 100 |  | > 100 |  | > 14.1
C=C1C(=O)O[C@@H]2C1C[C@@H](O)/C(C)=C/C/C=C(\C)CCC[C@H](C)[C@H]2OC(C)=O (stereo partly specified) | 32.3 | > 100 | 21.2 | 40.2 | 34.5 | > 100 | 45.4 | > 100 | 17.7 | 35.5 | 27.1 | 86.2 µM | 18.7 | 34.3 | 19.3 | 50.2 | 20.4 µM | 45.4 | 20.4 | 39.9
COc1ccc(/C=C\c2cc(OC)c(OC)c(OC)c2)cc1OC(=O)C(N)CCC(=O)O (stereo unspecified) | 0.000317 | 0.608 | 0.000576 | > 100 |  | > 59 |  | > 100 |  |  |  | 0.000785 µM and 0.0056 µM | 0.00706 |  | 4.67e-05 |  | 0.000364 µM and 0.000444 µM and < 0.0001 µM |  | 0.000814 | 0.000166
O=C(c1cc(F)c(Cl)cc1Cl)N1N=C(c2ccccc2)CC1(O)c1ccccc1 (stereo unspecified) | 19 | 41 |  |  | 16.2 | 31.6 | 13.7 | 27.6 | 14 | 26.9 | 20.2 | 48.2 µM | 15.8 | 40.9 | 23.6 | 48.1 | 17.3 µM | 35.9 | 16.5 | 30.2
CCCCCCCCCNCCCCCCCCC | 1.71 | 3.37 |  |  | 1.76 | 3.29 | 1.93 | 3.38 | 1.77 | 3.2 | 1.72 | 3.39 µM | 1.98 | 3.43 | 1.81 | 3.25 | 1.85 µM | 3.74 | 1.9 | 3.4
